Biological target: T1, GST-tagged-Wee1 kinase (Homo sapiens, UniProt P30291)
T1 construct: purchased Carnabio (Carna Biosciences) 05-177
Assay: Wee1 time-resolved fluorescence equilibrium binding assay (displacement of Oregon Green-labeled ATP-competitive kinase probe)
Conditions: read-out: Wee-1 inhibition (Ki)
How it was run: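 Ki values derive from competitive displacement, under equilibrium, of a fast-reversible ATP-site Oregon Green kinase probe from GST-tagged Wee1, detected by time-resolved fluorescence.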

T1 sequence (P30291 whole entry): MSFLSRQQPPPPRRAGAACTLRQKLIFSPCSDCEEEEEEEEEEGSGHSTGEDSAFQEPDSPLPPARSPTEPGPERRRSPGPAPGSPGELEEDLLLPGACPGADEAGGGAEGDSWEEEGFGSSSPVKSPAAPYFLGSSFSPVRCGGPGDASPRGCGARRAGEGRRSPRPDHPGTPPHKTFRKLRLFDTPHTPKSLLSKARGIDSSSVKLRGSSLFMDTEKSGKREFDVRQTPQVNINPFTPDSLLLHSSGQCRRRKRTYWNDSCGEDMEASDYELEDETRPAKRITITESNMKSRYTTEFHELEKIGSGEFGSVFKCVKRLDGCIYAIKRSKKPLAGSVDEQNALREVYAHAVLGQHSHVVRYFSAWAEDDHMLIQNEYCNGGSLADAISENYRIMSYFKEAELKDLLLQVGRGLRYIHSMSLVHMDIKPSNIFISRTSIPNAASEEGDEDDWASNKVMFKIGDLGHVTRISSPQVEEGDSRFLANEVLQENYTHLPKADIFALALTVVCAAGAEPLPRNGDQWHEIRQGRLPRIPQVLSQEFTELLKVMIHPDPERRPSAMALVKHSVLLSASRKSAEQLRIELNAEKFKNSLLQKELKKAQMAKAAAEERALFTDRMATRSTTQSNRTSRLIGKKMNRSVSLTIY

Ki, < 10 nM:
O=c1c2cnc(Nc3ccc4c(c3)CC(NCCF)C4)nc2n2ccnc2n1-c1c(Cl)cccc1Cl (centres unmarked) [Example 296, 6-(2,6-dichlorophenyl)-2-({2-[(2-fluoroethyl)amino]-2,3-dihydro-1H-inden-5-yl}amino)imidazo[1,2-a]pyrimido[5,4-e]pyrimidin-5(6H)-one]
CCCNC1Cc2ccc(Nc3ncc4c(=O)n(-c5c(Cl)cccc5Cl)c5nccn5c4n3)cc2C1 (centres unmarked) [Example 297, 6-(2,6-dichlorophenyl)-2-{[2-(propylamino)-2,3-dihydro-1H-inden-5-yl]amino}imidazo[1,2-a]pyrimido[5,4-e]pyrimidin-5(6H)-one]
CC(=O)N1CC2(CCN(c3ccc(Nc4ncc5c(=O)n(-c6c(Cl)cccc6Cl)c6nccn6c5n4)cc3)CC2)C1 [Example 298, 2-{[4-(2-acetyl-2,7-diazaspiro[3.5]non-7-yl)phenyl]amino}-6-(2,6-dichlorophenyl)imidazo[1,2-a]pyrimido[5,4-e]pyrimidin-5(6H)-one]
CS(=O)(=O)N1CC2(CCN(c3ccc(Nc4ncc5c(=O)n(-c6c(Cl)cccc6Cl)c6nccn6c5n4)cc3)CC2)C1 [Example 299, 6-(2,6-dichlorophenyl)-2-({4-[2-(methylsulfonyl)-2,7-diazaspiro[3.5]non-7-yl]phenyl}amino)imidazo[1,2-a]pyrimido[5,4-e]pyrimidin-5(6H)-one]
CNC(=O)N1Cc2cc(Nc3ncc4c(=O)n(-c5c(F)cccc5Cl)c5nccn5c4n3)ccc2C2(CC2)C1 [Example 300, 7′-{[6-(2-chloro-6-fluorophenyl)-5-oxo-5,6-dihydroimidazo[1,2-a]pyrimido[5,4-e]pyrimidin-2-yl]amino}-N-methyl-1′H-spiro[cyclopropane-1,4′-isoquinoline]-2′(3′H)-carboxamide]
CC(C)NC(=O)N1Cc2cc(Nc3ncc4c(=O)n(-c5c(F)cccc5Cl)c5nccn5c4n3)ccc2C2(CC2)C1 [Example 301, 7′-{[6-(2-chloro-6-fluorophenyl)-5-oxo-5,6-dihydroimidazo[1,2-a]pyrimido[5,4-e]pyrimidin-2-yl]amino}-N-(propan-2-yl)-1′H-spiro[cyclopropane-1,4′-isoquinoline]-2′(3′H)-carboxamide]
CC1(C)CN(CCF)Cc2cc(Nc3ncc4c(=O)n(-c5c(Cl)cccc5Cl)c5nccn5c4n3)ccc21 [Example 302, 6-(2,6-dichlorophenyl)-2-{[2-(2-fluoroethyl)-4,4-dimethyl-1,2,3,4-tetrahydroisoquinolin-7-yl]amino}imidazo[1,2-a]pyrimido[5,4-e]pyrimidin-5(6H)-one]
CS(=O)(=O)N1CC2(CN(c3ccc(Nc4ncc5c(=O)n(-c6c(Cl)cccc6Cl)c6nccn6c5n4)cc3)C2)C1 [Example 303, 6-(2,6-dichlorophenyl)-2-({4-[6-(methylsulfonyl)-2,6-diazaspiro[3.3]hept-2-yl]phenyl}amino)imidazo[1,2-a]pyrimido[5,4-e]pyrimidin-5(6H)-one]
O=c1c2cnc(Nc3ccc(N4CC5(CNC5)C4)cc3)nc2n2ccnc2n1-c1c(Cl)cccc1Cl [Example 304, 2-{[4-(2,6-diazaspiro[3.3]hept-2-yl)phenyl]amino}-6-(2,6-dichlorophenyl)imidazo[1,2-a]pyrimido[5,4-e]pyrimidin-5(6H)-one]
O=c1c2cnc(Nc3ccc4c(c3)CC(N3CCCC3)C4)nc2n2ccnc2n1-c1c(Cl)cccc1Cl (centres unmarked) [Example 305, 6-(2,6-dichlorophenyl)-2-{[2-(pyrrolidin-1-yl)-2,3-dihydro-1H-inden-5-yl]amino}imidazo[1,2-a]pyrimido[5,4-e]pyrimidin-5(6H)-one]
O=c1c2cnc(Nc3ccc4c(c3)CC(N3CC[C@H](F)C3)C4)nc2n2ccnc2n1-c1c(Cl)cccc1Cl (stereo partly drawn) [Example 306, 6-(2,6-dichlorophenyl)-2-({2-[(3S)-3-fluoropyrrolidin-1-yl]-2,3-dihydro-1H-inden-5-yl}amino)imidazo[1,2-a]pyrimido[5,4-e]pyrimidin-5(6H)-one]
CC1(C)CNCc2cc(Nc3ncc4c(=O)n(-c5c(Cl)cccc5Cl)c5nccn5c4n3)ccc21 [Example 307, 6-(2,6-dichlorophenyl)-2-[(4,4-dimethyl-1,2,3,4-tetrahydroisoquinolin-7-yl)amino]imidazo[1,2-a]pyrimido[5,4-e]pyrimidin-5(6H)-one]
O=c1c2cnc(Nc3ccc(NC4CCNCC4)cc3)nc2n2ccnc2n1-c1c(Cl)cccc1Cl [Example 308, 6-(2,6-dichlorophenyl)-2-{[4-(piperidin-4-ylamino)phenyl]amino}imidazo[1,2-a]pyrimido[5,4-e]pyrimidin-5(6H)-one]
CN1CCC(c2ccc(Nc3ncc4c(=O)n(-c5c(F)cccc5Cl)c5nccn5c4n3)cc2)CC1 [Example 309, 6-(2-chloro-6-fluorophenyl)-2-{[4-(1-methylpiperidin-4-yl)phenyl]amino}imidazo[1,2-a]pyrimido[5,4-e]pyrimidin-5(6H)-one]
CC(=O)N1Cc2cc(Nc3ncc4c(=O)n(-c5c(F)cccc5Cl)c5nccn5c4n3)ccc2C(C)(C)C1 [Example 310, 2-[(2-acetyl-4,4-dimethyl-1,2,3,4-tetrahydroisoquinolin-7-yl)amino]-6-(2-chloro-6-fluorophenyl)imidazo[1,2-a]pyrimido[5,4-e]pyrimidin-5(6H)-one]
CC1(C)CN(C(=O)C2CC2)Cc2cc(Nc3ncc4c(=O)n(-c5c(F)cccc5Cl)c5nccn5c4n3)ccc21 [Example 311, 6-(2-chloro-6-fluorophenyl)-2-{[2-(cyclopropylcarbonyl)-4,4-dimethyl-1,2,3,4-tetrahydroisoquinolin-7-yl]amino}imidazo[1,2-a]pyrimido[5,4-e]pyrimidin-5(6H)-one]
CC1(C)CN(S(C)(=O)=O)Cc2cc(Nc3ncc4c(=O)n(-c5c(F)cccc5Cl)c5nccn5c4n3)ccc21 [Example 312, 6-(2-chloro-6-fluorophenyl)-2-{[4,4-dimethyl-2-(methylsulfonyl)-1,2,3,4-tetrahydroisoquinolin-7-yl]amino}imidazo[1,2-a]pyrimido[5,4-e]pyrimidin-5(6H)-one]
O=c1c2cnc(Nc3ccc(N4CC5(CCNC5)C4)cc3)nc2n2ccnc2n1-c1c(Cl)cccc1Cl [Example 313, 2-{[4-(2,6-diazaspiro[3.4]oct-2-yl)phenyl]amino}-6-(2,6-dichlorophenyl)imidazo[1,2-a]pyrimido[5,4-e]pyrimidin-5(6H)-one]
O=c1c2cnc(Nc3ccc(N4CC5(CCNCC5)C4)cc3)nc2n2ccnc2n1-c1c(Cl)cccc1Cl [Example 314, 2-{[4-(2,7-diazaspiro[3.5]non-2-yl)phenyl]amino}-6-(2,6-dichlorophenyl)imidazo[1,2-a]pyrimido[5,4-e]pyrimidin-5(6H)-one]
CN(C)[C@H]1CCN(c2ccc(Nc3ncc4c(=O)n(-c5c(Cl)cccc5Cl)c5nccn5c4n3)cc2)C1 [Example 315, 6-(2,6-dichlorophenyl)-2-({4-[(3S)-3-(dimethylamino)pyrrolidin-1-yl]phenyl}amino)imidazo[1,2-a]pyrimido[5,4-e]pyrimidin-5(6H)-one]

— US8710065B2, “Tricyclic inhibitors of kinases” (AbbVie Inc., priority 2011, dated 2014)
